By logP is commonly meant the decadic logarithm of the partition coefficient of the neutral form, usually between octanol and water. Read a high logP as a more lipophilic compound.

Series [1] is described as follows: Lipophilicity, log P of the compound. It counts as physicochemical. Conditions: octanol/water.
Series [2] deals with Mus musculus. The series can be described thus: Anticonvulsant activity in ip dosed Mus musculus (mouse) assessed as protection against pentylenetetrazole-induced seizures administered 1 hr before pentylenetetrazole challenge measured after 30 min. It counts as functional. Conditions: read-out: PD50.
In series [3] the test system is Mus musculus. Kind of series: Anticonvulsant activity in Mus musculus (mouse) assessed as protection against pentylenetetrazole-induced seizures at 150 mg/kg, ip administered 1 hr before pentylenetetrazole challenge measured after 30 min. It counts as functional. Conditions: route intraperitoneal.
The test system of series [4] is Mus musculus. The series can be described thus: Anticonvulsant activity in Mus musculus (mouse) assessed as protection against pentylenetetrazole-induced seizures at 100 mg/kg, ip administered 1 hr before pentylenetetrazole challenge measured after 30 min. It counts as functional. Conditions: route intraperitoneal.
Series [5] relates to Mus musculus. The series can be described thus: Anticonvulsant activity in Mus musculus (mouse) assessed as protection against pentylenetetrazole-induced seizures at 50 mg/kg, ip administered 1 hr before pentylenetetrazole challenge measured after 30 min. It counts as functional. Conditions: route intraperitoneal.
Series [6] deals with Mus musculus. The series can be described thus: Anticonvulsant activity in Mus musculus (mouse) assessed as protection against pentylenetetrazole-induced seizures at 20 mg/kg, ip administered 1 hr before pentylenetetrazole challenge measured after 30 min. The class given is functional. Conditions: route intraperitoneal.
Series [7] deals with Mus musculus. The series can be described thus: Anticonvulsant activity in Mus musculus (mouse) assessed as protection against pentylenetetrazole-induced seizures at 15 mg/kg, ip administered 1 hr before pentylenetetrazole challenge measured after 30 min. It counts as functional. Conditions: route intraperitoneal.
For series [8], the system named is Mus musculus. Kind of series: Anticonvulsant activity in Mus musculus (mouse) assessed as protection against pentylenetetrazole-induced seizures at 10 mg/kg, ip administered 1 hr before pentylenetetrazole challenge measured after 30 min. Conditions: route intraperitoneal. It counts as functional.

`N#Cc1cnn(-c2nc3ccccc3c(=O)n2-c2ccccc2)c1N` returned a logP in series [1] of 3.01. The ED50 in the series with Mus musculus [2] is 90 mg/kg. In addition, the results for the Activity in the series with Mus musculus [3], in the series on Mus musculus [4] and in the series with Mus musculus [5] were 87.5%, 50% and 25%, respectively.

For the compound `O=C1NN=C(c2ccccc2)C(c2ccccc2)C1Sc1nc2ccccc2c(=O)n1-c1ccccc1` (stereo unspecified), the logP in series [1] amounted to 6.4. The ED50 in the series with Mus musculus [2] turned out to be 68 mg/kg. Moreover, the Activity in the series with Mus musculus [3] worked out at 87.5%; in the series with Mus musculus [4], 62.5%; in the series with Mus musculus [5], 37.5%.

With `COc1ccc(/C=N/Nc2nc3ccccc3c(=O)n2-c2ccccc2)cc1OC`, the log partition coefficient (logP) in series [1] amounted to 4.72. In the series on Mus musculus [2], the ED50 turned out to be 83 mg/kg. Moreover, the Activity in the series on Mus musculus [3] was found to be 87.5%; with Mus musculus [4] it was 62.5%; in the series with Mus musculus [5], 25%.

Take `O=C(CSc1nc2ccccc2c(=O)n1-c1ccccc1)c1ccc(Cl)cc1`: the logP in series [1] worked out at 5.5. The ED50 in the series on Mus musculus [2] stood at 80 mg/kg. Moreover, the values for the Activity with Mus musculus [3], in the series on Mus musculus [4] and in the series on Mus musculus [5] were 87.5%, 62.5% and 25%, respectively.

In turn, `CCC1(c2ccccc2)C(=O)NC(=O)NC1=O` [PHENOBARBITAL] displayed a logP in series [1] of 1.36. For the same compound, in the series with Mus musculus [2], the ED50 came to 16 mg/kg. Moreover, the Activity with Mus musculus [6] came out at 62.5%; with Mus musculus [7] it was 50%; with Mus musculus [8], 37.5%.

For the compound `COc1ccc(C(=O)CSc2nc3ccccc3c(=O)n2-c2ccccc2)cc1`, the logP in series [1] is 4.82. For the same compound, the ED50 in the series on Mus musculus [2] is 85 mg/kg. Also, the Activity in the series on Mus musculus [3] is listed as 87.5%; in the series on Mus musculus [4], 50%; in the series on Mus musculus [5], 37.5%.

For the compound `O=c1c2ccccc2n2c(-c3ccc(Cl)cc3)nnc2n1-c1ccccc1`, in series [1], the logP came to 5.25. Moreover, the ED50 in the series with Mus musculus [2] was determined as 64 mg/kg. Further, the values for the Activity in the series with Mus musculus [3], in the series with Mus musculus [4] and in the series with Mus musculus [5] were 100%, 62.5% and 37.5%, respectively.

With `O=C(CSc1nc2ccccc2c(=O)n1-c1ccccc1)c1ccc(Br)cc1`, the logP in series [1] was determined as 5.77. Moreover, in the series with Mus musculus [2], the ED50 turned out to be 78 mg/kg. The figures for the Activity in the series on Mus musculus [3], with Mus musculus [4] and with Mus musculus [5] were 100%, 50% and 37.5%, respectively.

The compound `COc1ccc(-c2nnc3n(-c4ccccc4)c(=O)c4ccccc4n23)cc1OC` returned a logP in series [1] of 4.44. Further, in the series with Mus musculus [2], the ED50 was found to be 160 mg/kg. Further, the values for the Activity in the series with Mus musculus [3], with Mus musculus [4] and in the series with Mus musculus [5] were 50%, 37.5% and 12.5%, respectively.

Regarding `CCn1c(SCC(=O)c2ccc(Br)cc2)nc2ccccc2c1=O`, the logP in series [1] was 4.45. In addition, the ED50 in the series with Mus musculus [2] is 86 mg/kg. Also, the values for the Activity in the series on Mus musculus [3], with Mus musculus [4] and in the series on Mus musculus [5] were 87.5%, 50% and 37.5%, respectively.

As for `O=C1C=C(Sc2nc3ccccc3c(=O)n2-c2ccccc2)C(=O)N=N1`, in series [1], the logP turned out to be 2.13. In addition, the ED50 in the series with Mus musculus [2] came to 66 mg/kg. Also, the Activity is listed as 100% with Mus musculus [3], 62.5% in the series on Mus musculus [4] and 37.5% in the series with Mus musculus [5].

With `O=c1c2ccccc2nc(N/N=C/c2ccc(Cl)cc2)n1-c1ccccc1`, the logP in series [1] worked out at 5.53. Also, the ED50 with Mus musculus [2] was 50 mg/kg. The Activity in the series with Mus musculus [3] was determined as 100%; in the series on Mus musculus [4], 100%; in the series with Mus musculus [5], 50%.

Regarding `CN1C(=O)CN=C(c2ccccc2)c2cc(Cl)ccc21` [DIAZEPAM], the ED50 with Mus musculus [2] turned out to be 2 mg/kg.

For the origin of these results see ChEMBL document CHEMBL3045667, “Design, synthesis, and anticonvulsant activity of novel quinazolinone analogues” (Med Chem Res, 2011).
